The record followed here is patent US20130102595A1 (Curis, Inc., priority 2011, published 2013).

Experiment [1] deals with PANC-1. The experiment is described as follows: Cell proliferation assay (CellTiter-Glo). The format is cell-based. The following applies: Homo sapiens, Pancreas, 72 hours, 0.5% fetal bovine serum, read-out: antiproliferative activity IC50, PANC-1. In outline:
(§1)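 Cancer cells seeded at 5,000–10,000/well and exposed to a concentration range of compound for 72 h in 0.5% FBS. Growth inhibition read as ATP content by luciferase luminescence after 30 min lysis.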
Background: ATP-based viability assays read luminescence as a measure of living cells.

Experiment [2] relates to MiaPaca1. The experiment is described as follows: Cell proliferation assay (CellTiter-Glo). The format is cell-based. The following applies: Pancreas; 72 hours, 0.5% fetal bovine serum; read-out: antiproliferative activity IC50, MiaPaca1. In outline:
as §1

Experiment [3] concerns WiDr. The experiment can be described thus: Cell proliferation assay (CellTiter-Glo). The format is cell-based. The following applies: Homo sapiens, Colon, 72 hours, 0.5% fetal bovine serum, read-out: antiproliferative activity IC50, WiDr. A digest of the protocol:
as §1

For experiment [4], the system named is MDA-MB-231. The experiment can be described thus: Cell proliferation assay (CellTiter-Glo). The format is cell-based. To be noted: Homo sapiens, Breast, 72 hours, 0.5% fetal bovine serum, read-out: antiproliferative activity IC50, MDA-MB-231. A digest of the protocol:
as §1

The test system of experiment [5] is CaPan2. The experiment is described as follows: Cell proliferation assay (CellTiter-Glo). The format is cell-based. To be noted: Homo sapiens, Capan-2; Pancreas; 72 hours, 0.5% fetal bovine serum; read-out: antiproliferative activity IC50, CaPan2. In outline:
as §1

The subject of experiment [6] is Calu6. The experiment is described as follows: Cell proliferation assay (CellTiter-Glo). In kind it is cell-based. The following applies: Homo sapiens, Calu-6; NSCLC; 72 hours, 0.5% fetal bovine serum; read-out: antiproliferative activity IC50, Calu6. A digest of the protocol: as §1
In experiment [7] the test system is HCT116. The experiment can be described thus: Cell proliferation assay (CellTiter-Glo). In kind it is cell-based. The following applies: Homo sapiens, HCT-116; Colon; 72 hours, 0.5% fetal bovine serum; read-out: antiproliferative activity IC50, HCT116. In outline: as §1
Experiment [8] has as its system H460. The experiment can be described thus: Cell proliferation assay (CellTiter-Glo). The format is cell-based. To be noted: Homo sapiens, NCI-H460; NSCLC; 72 hours, 0.5% fetal bovine serum; read-out: antiproliferative activity IC50, H460. A digest of the protocol: as §1
Experiment [9] deals with SW1990. The experiment can be described thus: Cell proliferation assay (CellTiter-Glo). The format is cell-based. To be noted: Homo sapiens, Pancreas, 72 hours, 0.5% fetal bovine serum, read-out: antiproliferative activity IC50, SW1990. In outline:
as §1

The subject of experiment [10] is CFPAC-1. The experiment can be described thus: Cell proliferation assay (CellTiter-Glo). In kind it is cell-based. To be noted: Homo sapiens, Pancreas, 72 hours, 0.5% fetal bovine serum, read-out: antiproliferative activity IC50, CFPAC-1. In outline: as §1
Experiment [11] addresses T1, PI3Kα (p110α/p85α) (Homo sapiens, UniProt P42336).
T1 construct: GST (N); made in house; host or cells: Baculovirus-infected Sf9 cells
The experiment can be described thus: PI3Kα ADP-Glo assay. In kind it is biochemical. To be noted: 20 μM PIP2, 10 μM ATP, 30 minutes. A digest of the protocol:
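Recombinant full-length human GST-p110α/His-p85α, co-expressed in Sf9 cells, was incubated 30 min at room temperature with 20 μM PIP2 and 10 μM ATP. The buffer was 50 mM HEPES pH 7.4, 150 mM NaCl, 5 mM MgCl2, 1 mM DTT, 3 µM orthovanadate and 0.5% DMSO. ADP formed was detected by ADP-Glo luminescence.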

Experiment [12] concerns HDACs (HeLa cell nuclear extracts). The experiment is described as follows: HDAC enzymatic activity, Biomol Color de Lys system. In kind it is biochemical. To be noted: 1 hour, 25° C. A digest of the protocol: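 HeLa nuclear extract incubated with serially diluted compound and […] artificial substrate in 50 mM Tris/Cl pH 8.0, 137 mM NaCl, 2.7 mM KCl, 1 mM MgCl2. Run 1 h at 25 °C, stopped with developer. Fluorescence read (ex 350-380, em 440-460 nm); IC50 from sigmoidal dose-response fit.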

T1 sequence (P42336 whole entry): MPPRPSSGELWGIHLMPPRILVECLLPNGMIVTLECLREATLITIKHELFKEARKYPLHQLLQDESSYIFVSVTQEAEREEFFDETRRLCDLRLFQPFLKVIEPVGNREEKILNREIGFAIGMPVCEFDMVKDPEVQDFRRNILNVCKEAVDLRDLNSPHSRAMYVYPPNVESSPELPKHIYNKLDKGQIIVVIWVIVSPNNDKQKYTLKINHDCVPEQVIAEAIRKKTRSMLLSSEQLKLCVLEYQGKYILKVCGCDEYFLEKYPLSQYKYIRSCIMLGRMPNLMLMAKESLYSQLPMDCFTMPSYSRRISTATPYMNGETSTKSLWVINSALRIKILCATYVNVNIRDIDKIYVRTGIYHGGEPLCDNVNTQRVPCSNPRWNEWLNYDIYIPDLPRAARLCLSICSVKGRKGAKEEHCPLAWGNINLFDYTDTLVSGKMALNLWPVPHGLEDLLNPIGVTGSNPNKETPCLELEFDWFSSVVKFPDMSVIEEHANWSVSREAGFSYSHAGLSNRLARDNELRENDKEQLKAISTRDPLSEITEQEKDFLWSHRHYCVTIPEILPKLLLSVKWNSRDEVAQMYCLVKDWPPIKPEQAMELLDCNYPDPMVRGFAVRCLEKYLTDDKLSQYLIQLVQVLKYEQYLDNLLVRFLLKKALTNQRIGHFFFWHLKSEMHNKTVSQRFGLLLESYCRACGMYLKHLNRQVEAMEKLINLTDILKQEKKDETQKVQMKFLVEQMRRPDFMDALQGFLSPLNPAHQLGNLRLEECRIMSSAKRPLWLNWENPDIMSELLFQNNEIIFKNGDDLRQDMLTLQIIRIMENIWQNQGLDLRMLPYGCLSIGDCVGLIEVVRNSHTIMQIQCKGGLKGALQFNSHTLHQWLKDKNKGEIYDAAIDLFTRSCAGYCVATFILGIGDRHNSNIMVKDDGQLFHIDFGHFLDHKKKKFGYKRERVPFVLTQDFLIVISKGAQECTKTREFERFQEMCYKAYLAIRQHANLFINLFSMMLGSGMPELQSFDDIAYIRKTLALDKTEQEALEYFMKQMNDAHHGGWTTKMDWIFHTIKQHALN
T1 sequence (P27986 whole entry partner): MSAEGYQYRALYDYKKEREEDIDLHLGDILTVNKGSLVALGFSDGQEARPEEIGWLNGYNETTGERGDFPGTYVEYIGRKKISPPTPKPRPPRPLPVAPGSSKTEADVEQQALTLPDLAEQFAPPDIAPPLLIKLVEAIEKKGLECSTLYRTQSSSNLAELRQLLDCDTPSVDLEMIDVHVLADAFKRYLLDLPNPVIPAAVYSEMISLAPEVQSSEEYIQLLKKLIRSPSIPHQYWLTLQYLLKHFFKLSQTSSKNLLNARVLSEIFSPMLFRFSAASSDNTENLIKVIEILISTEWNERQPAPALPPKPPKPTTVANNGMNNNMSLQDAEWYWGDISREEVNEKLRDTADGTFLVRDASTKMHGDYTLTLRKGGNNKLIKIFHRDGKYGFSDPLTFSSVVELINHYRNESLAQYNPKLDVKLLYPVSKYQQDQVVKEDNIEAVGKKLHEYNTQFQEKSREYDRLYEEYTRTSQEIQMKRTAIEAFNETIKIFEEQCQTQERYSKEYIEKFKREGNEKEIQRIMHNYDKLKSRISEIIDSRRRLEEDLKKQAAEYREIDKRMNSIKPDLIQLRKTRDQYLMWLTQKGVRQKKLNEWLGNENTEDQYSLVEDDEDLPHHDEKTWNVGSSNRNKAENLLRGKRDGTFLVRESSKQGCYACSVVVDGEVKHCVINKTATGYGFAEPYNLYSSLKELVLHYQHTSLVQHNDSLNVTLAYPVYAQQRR

For the compound `CNc1ccc(-c2nc(N3CCOCC3)c3sc(CN(C)c4ncc(C(=O)NO)cn4)cc3n2)cn1` [Compound 111, N-Hydroxy-2-(methyl((2-(6-(methylamino)pyridin-3-yl)-4-morpholinothieno[3,2-d]pyrimidin-6-yl)methyl)amino)pyrimidine-5-carboxamide], the IC50 is 10 to 100 nM in [1]; less than 10 nM in experiment [2]; 10 to 100 nM in experiment [3]; 100 to 1000 nM in [4]; 10 to 100 nM in experiment [5]; 10 to 100 nM in experiment [6]. The IC50 in experiment [7] was less than 10 nM; in experiment [8], 10 to 100 nM; in experiment [9], less than 10 nM; in experiment [10], 10 to 100 nM; in experiment [11], less than 100 nM; in experiment [12] it was less than 100 nM.
As to `CN(Cc1cc2nc(-c3ccc(N)cc3)nc(N3CCOCC3)c2s1)c1ncc(C(=O)NO)cn1` [Compound 150, 2-(((2-(4-aminophenyl)-4-morpholinothieno[3,2-d]pyrimidin-6-yl)methyl)(methyl)amino)-N-hydroxypyrimidine-5-carboxamide], the 50% inhibitory concentration (IC50) in experiment [1] was 10 to 100 nM; in experiment [2], less than 10 nM; in experiment [3] it was 10 to 100 nM; in [4] it was less than 10 nM; in [5] it was less than 10 nM; in experiment [6], less than 10 nM. Also, the IC50 is less than 10 nM in experiment [7]; 10 to 100 nM in experiment [8]; less than 10 nM in experiment [9]; 10 to 100 nM in experiment [10]; less than 100 nM in [11]; less than 100 nM in [12].
Consider `CN(Cc1cc2nc(-c3cccc4[nH]ncc34)nc(N3CCOCC3)c2s1)c1ncc(C(=O)NO)cn1` [Compound 54, 2-(((2-(1H-indazol-4-yl)-4-morpholinothieno[3,2-d]pyrimidin-6-yl)methyl)(methyl)amino)-N-hydroxypyrimidine-5-carboxamide], for which the IC50 in experiment [1], in [2], in [3], in [4], in [5] and in experiment [6] was 10 to 100 nM each time. Further, the IC50 in experiment [7] was less than 10 nM; in experiment [8], 100 to 1000 nM; in experiment [9], 10 to 100 nM; in experiment [10], 100 to 1000 nM; in experiment [11], less than 100 nM; in experiment [12], less than 100 nM.

In general, IC50 refers to the point on the concentration scale where inhibition reaches its midpoint.
